Data published in PubChem BioAssay AID2060618 (Molecular Pharmacology Branch, DTP, NCI, 2025).
“And” between values parts separate entries of the source, which are not always exact repeats. Equal values may be shown once.

System: 454973-116-R2-J3-PDC spheroids, percent test/control viability
Experiment: Anticancer human tumor 454973-116-R2-J3-PDC patient-derived pancreatic carcinoma cell line growth inhibition [CLK]
Conditions: spheroids with HUVEC and MSC; for viability, T/C: stronger effect = lower value
Source text: A high-throughput screen of multi-cell type tumor spheroids was designed to identify active combinations of […] and targeted small molecules. Complex spheroids include a stromal component modeled by human endothelial cells (HUVEC) and fibroblasts modeled by human mesenchymal stem cells (MSCs). The concentration ranges selected for each drug and investigational agent were based upon clinically achievable concentrations if the clinical Cmax of the agent was known.
Compounds. The drugs and investigational agents: cirtuvivint (SM08502; NSC835563), CC-671 (NSC850746), vemurafenib (NSC761431), tapotoclax (NSC804041), sotorasib (NSC818433), adagrasib (NSC831453), MRTX-1133 (NSC836407), BAY2416964 (NSC825713), copanlisib (NSC816437), inavolisib (NSC800729), abemaciclib (NSC768073), osimertinib (NSC779217), entinostat (NSC756642), eltanexor (KPT-8602, NSC794443), venetoclax (NSC766270), ceralasertib (NSC777638), bortezomib (NSC756655), olaparib (NSC753686), talazoparib (NSC767125), alisertib (NSC759677), peposertib (NSC802822), gemcitabine (NSC613327), 5-fluorouracil (NSC19893), SN-38 (NSC673596), oxaliplatin (NSC266046), paclitaxel (NSC125973), and doxorubicin (NSC123127), were obtained from the National Cancer Institute (NCI) Developmental Therapeutics Program Chemical Repository. The FDA-approved anticancer drug set is available from the Developmental Therapeutics Program at https://dtp.cancer.gov/organization/dscb/obtaining/available plates.htm. […] The stock solutions were prepared in dimethyl sulfoxide (DMSO, Sigma-Aldrich, St. Louis, MO, cat. D2650), except for the platinum complexes which were prepared in saline (Quality Biological, Gaithersburg, MD, cat. 114-055-101), at 800-fold the tested concentration and stored at -70 degrees C prior to their use. All drugs and investigational agents were tested over a range starting from a high concentration at or near the clinical Cmax and decreasing in half-log increments. If the clinical Cmax for an agent had not been determined, the highest concentration tested was 10 microM.
Cell Culture. All cells were maintained in an incubator at 37 degrees C and 5% CO2 with 95% humidity. The PDC lines were cultured according to standard operating procedures established by the NCI PDMR. Briefly, all PDCs were thawed and cultured in Matrigel-coated flasks prepared with a working solution of 1X Ham's F-12 nutrient mix, without supplementation (Invitrogen, Waltham, MA, cat. 11765054), 100 U/mL penicillin-streptomycin (Invitrogen, cat. 15140122), and 2.5% Matrigel (Corning Inc., Corning, NY, cat. 354248) for the first three passages. The 947758-054-R-J2-PDC line was cultured in 6B/Colon 1A media, which includes advanced DMEM/F-12 (Thermo Fisher Scientific, cat. 12634028), 10 mM HEPES (Thermo Fisher Scientific, cat. 15630080), 1X GlutaMAX supplement (Thermo Fisher Scientific, cat. 35050061), 0.1 mg/mL primocin (InvivoGen, cat. ant-pm-2), 10% defined fetal bovine serum, heat inactivated (HyClone Laboratories Inc., cat. SH30070.03HI), 1.25 mM N-Acetyl-L-cysteine (Sigma-Aldrich, cat. A9165), 10 mM nicotinamide (Sigma-Aldrich, cat. N0636), 1X B-27 supplement (Thermo Fisher Scientific, cat. 17504044), 1X N-2 supplement (Thermo Fisher Scientific, cat. 17502048), and 10 microM Y-27632 dihydrochloride (Tocris Bioscience, cat. 1254). The 876862-298-R-J1-PDC was cultured in 6E media, which includes all 6B/Colon 1A media components plus 50% L-WRN conditioned media (ATCC, cat. CRL-3276), 50 ng/mL recombinant human EGF recombinant protein (hEGF; Thermo Fisher Scientific, cat. PHG0311), 10 ng/mL recombinant human fibroblast growth factor 10 (hGFG-10; PeproTech, cat. 100-26), 1 ng/mL recombinant human fibroblast growth factor 2 (hFGF-2; PeproTech, cat. 100-18B), and 1 µM prostaglandin E2 (PGE2; Tocris, cat. 2296). The 227483-062-R1-J1-PDC line was cultured in Panc media, containing all 6E components except hFGF-2, with the addition of 500 nM SB-431542 (Selleckchem, cat. S1067) and 10 nM gastrin (Tocris, cat. 3006). […]

[1] = curve of first compound, second compound 0.0316 µM
[2] = curve of first compound, second compound 0.1 µM
[3] = curve of first compound, second compound 0.316 µM
[4] = curve of first compound, second compound 1 µM
[5] = curve of first compound, second compound 3.16 µM
[6] = curve of first compound, second compound 10 µM
[7] = second compound 0.0316 µM, first compound 0.0316 µM
[8] = second compound 0.0316 µM, first compound 0.1 µM
[9] = second compound 0.0316 µM, first compound 0.316 µM
[10] = second compound 0.0316 µM, first compound 1 µM
[11] = second compound 0.0316 µM, first compound 3.16 µM
[12] = second compound 0.0316 µM, first compound 10 µM
[13] = second compound 0.1 µM, first compound 0.0316 µM
[14] = second compound 0.1 µM, first compound 0.1 µM
[15] = second compound 0.1 µM, first compound 0.316 µM
[16] = second compound 0.1 µM, first compound 1 µM
[17] = second compound 0.1 µM, first compound 3.16 µM
[18] = second compound 0.1 µM, first compound 10 µM
[19] = second compound 0.316 µM, first compound 0.0316 µM
[20] = second compound 0.316 µM, first compound 0.1 µM
[21] = second compound 0.316 µM, first compound 0.316 µM
[22] = second compound 0.316 µM, first compound 1 µM
[23] = second compound 0.316 µM, first compound 3.16 µM
[24] = second compound 0.316 µM, first compound 10 µM
[25] = second compound 1 µM, first compound 0.0316 µM
[26] = second compound 1 µM, first compound 0.1 µM
[27] = second compound 1 µM, first compound 0.316 µM
[28] = second compound 1 µM, first compound 1 µM
[29] = second compound 1 µM, first compound 3.16 µM
[30] = second compound 1 µM, first compound 10 µM
[31] = second compound 3.16 µM, first compound 0.0316 µM
[32] = second compound 3.16 µM, first compound 0.1 µM
[33] = second compound 3.16 µM, first compound 0.316 µM
[34] = second compound 3.16 µM, first compound 1 µM
[35] = second compound 3.16 µM, first compound 3.16 µM
[36] = second compound 3.16 µM, first compound 10 µM
[37] = second compound 10 µM, first compound 0.0316 µM
[38] = second compound 10 µM, first compound 0.1 µM
[39] = second compound 10 µM, first compound 0.316 µM
[40] = second compound 10 µM, first compound 1 µM
[41] = second compound 10 µM, first compound 3.16 µM
[42] = second compound 10 µM, first compound 10 µM
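Also: spheroids exposed to compounds for 7 days before readout.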

## COc1ccc([C@@H](O)c2cc(-c3ncnc4cc(N5CCOCC5)ccc34)c(F)cc2Cl)nn1 + CNC(=O)c1ccc(Nc2nc(OC3CCCC3)c3c(-c4ccc5nc(C)oc5c4)c[nH]c3n2)c(OC)c1
[1]
  IC50: > 10 µM
[2]
  IC50: > 10 µM
[3]
  IC50: < 0.0316 µM
[4]
  IC50: < 0.0316 µM
[5]
  IC50: < 0.0316 µM
[6]
  IC50: < 0.0316 µM
[7]
  viability, T/C: 109%
[8]
  viability, T/C: 95.5%
[9]
  viability, T/C: 105%
[10]
  viability, T/C: 93%
[11]
  viability, T/C: 80.3%
[12]
  viability, T/C: 51.1%
[13]
  viability, T/C: 98.9%
[14]
  viability, T/C: 110%
[15]
  viability, T/C: 94.5%
[16]
  viability, T/C: 97.2%
[17]
  viability, T/C: 72.9%
[18]
  viability, T/C: 54.7%
[19]
  viability, T/C: 42.2%
[20]
  viability, T/C: 41.4%
[21]
  viability, T/C: 49.1%
[22]
  viability, T/C: 43.2%
[23]
  viability, T/C: 45.5%
[24]
  viability, T/C: 31.9%
[25]
  viability, T/C: 27.8%
[26]
  viability, T/C: 28%
[27]
  viability, T/C: 29.1%
[28]
  viability, T/C: 24.9%
[29]
  viability, T/C: 25.9%
[30]
  viability, T/C: 21.4%
[31]
  viability, T/C: 26.8%
[32]
  viability, T/C: 30.3%
[33]
  viability, T/C: 26.3%
[34]
  viability, T/C: 25.9%
[35]
  viability, T/C: 23.6%
[36]
  viability, T/C: 18.4%
[37]
  viability, T/C: 28.2%
[38]
  viability, T/C: 26.5%
[39]
  viability, T/C: 23.1%
[40]
  viability, T/C: 24.4%
[41]
  viability, T/C: 27.2%
[42]
  viability, T/C: 17.7%

## CCN1CCN(Cc2ccc(Nc3ncc(F)c(-c4cc(F)c5nc(C)n(C(C)C)c5c4)n3)nc2)CC1
Compound 0.00316 µM
  viability, T/C: 95.9% and 106%
Compound 0.01 µM
  viability, T/C: 99.1% and 87.2%
Compound 0.0316 µM
  viability, T/C: 89.6% and 75.1%
Compound 0.1 µM
  viability, T/C: 75.3% and 70.8%
Compound 0.316 µM
  viability, T/C: 60.3% and 65%
Compound 1 µM
  viability, T/C: 62.7% and 64.3%
Curve of compound
  IC50: > 1 µM

## C#Cc1c(F)ccc2cc(O)cc(-c3ncc4c(N5CC6CCC(C5)N6)nc(OCC56CCCN5CC(F)C6)nc4c3F)c12 (stereo unspecified) + CN1CCN(c2cc(C(=O)Nc3cc4cc(-c5cnn(C)c5)ccc4cn3)ccn2)CC1
[1]
  IC50: 0.0347 µM
[2]
  IC50: < 0.0316 µM
[3]
  IC50: < 0.0316 µM
[4]
  IC50: < 0.0316 µM
[5]
  IC50: < 0.0316 µM
[6]
  IC50: < 0.0316 µM
[7]
  viability, T/C: 51%
[8]
  viability, T/C: 40.5%
[9]
  viability, T/C: 29.7%
[10]
  viability, T/C: 30.5%
[11]
  viability, T/C: 26.4%
[12]
  viability, T/C: 21.7%
[13]
  viability, T/C: 42%
[14]
  viability, T/C: 35.6%
[15]
  viability, T/C: 29.6%
[16]
  viability, T/C: 21.9%
[17]
  viability, T/C: 22.5%
[18]
  viability, T/C: 16.6%
[19]
  viability, T/C: 2.95%
[20]
  viability, T/C: 4.54%
[21]
  viability, T/C: 2.86%
[22]
  viability, T/C: 2.52%
[23]
  viability, T/C: 2.6%
[24]
  viability, T/C: 2.24%
[25]
  viability, T/C: 0.11%
[26]
  viability, T/C: 0.13%
[27]
  viability, T/C: 0.46%
[28]
  viability, T/C: 0.08%
[29]
  viability, T/C: 0.12%
[30]
  viability, T/C: 0.4%
[31]
  viability, T/C: 0.06%
[32]
  viability, T/C: 0.9%
[33]
  viability, T/C: 0.56%
[34]
  viability, T/C: 0.07%
[35]
  viability, T/C: 0.09%
[36]
  viability, T/C: 1.64%
[37]
  viability, T/C: 0.11%
[38]
  viability, T/C: 0.13%
[39]
  viability, T/C: 0.73%
[40]
  viability, T/C: 0.56%
[41]
  viability, T/C: 0.92%
[42]
  viability, T/C: 0.5%
